Structures are written as SMILES. Structures can show the parent of a compound that is named as a salt. Where two headings read alike, the source gives them in different places.

One data set relates to Shay's Ulcer. Briefly: Anti-ulcer effect: Shay's ulcer (pyloric ligation). It counts as in vivo, Male rats of the Wistar strain. The conditions noted are these: p.o., 12 hours, vs control U.I. Here is the method: (§1) The anti-ulcer effect of some compounds of this invention was evaluated with regard to various types of experimental gastric and duodenal ulcers. The method of evaluation for each type of ulcer is outlined below.
Male rats of the Wistar strain, 7 or 8 weeks of age, were used in groups of ten. After 48 hours of fasting, the pyloric part of the stomach was ligated under ether anesthesia. Immediately after the operation, a certain amount of a compound to be tested was orally administered to each animal of a group. After 12 hours, the degree of ulceration occurring in the anterior part of the stomach was rated and regarded as an ulcer index (U.I.). Control rats were treated in the same manner as described above, except that they received no compounds to be tested. The results given in Table 1 are expressed in terms of the percentage of inhibition based on the U.I. obtained in the control group.

The next data set deals with Stress Ulcer. Briefly: Anti-ulcer effect: stress ulcer. It counts as in vivo, Male rats of the Wistar strain. The conditions noted are these: p.o., stress for 16 hours, vs control U.I. On the procedure:
as §1
Male rats of the Wistar strain, 8 weeks of age, were used in groups of ten. Each animal was immobilized in a stressing cage as developed by Takagi et al., immersed in water at 23° C. to the level of the xiphoid process, and thereby subjected to stress for 16 hours. Thereafter, the stomach was excised. The length of the ulcer formed in the glandular part of the stomach was measured and regarded as an ulcer index (U.I.). A certain amount of a compound to be tested was orally administered just before subjecting the animal to stress. The results are also expressed in terms of the percentage of inhibition based on the U.I. obtained in the control group receiving no compounds to be tested.

The subject of the next data set is Aspirin Ulcer. Briefly: Anti-ulcer effect: aspirin ulcer. The format is in vivo, Male rats of the Donryu strain. Particulars: p.o., aspirin 250 mg/kg, 6 hours. Here is the method: as §1
Male rats of the Donryu strain, 10 to 11 weeks of age, were used in groups of ten. After 24 hours of fasting, a certain amount of a compound to be tested was orally administered to each animal of a group. Ten minutes later, aspirin was orally administered in a dose of 250 mg/kg. After 6 hours, the size of the ulcer formed in the glandular part of the stomach was rated by visual inspection and regarded as an ulcer index (U.I.). The results are also expressed in terms of the percentage of inhibition based on the U.I. obtained in the control group receiving no compounds to be tested.

For another data set, the system named is Acetic Acid Ulcer. Briefly: Anti-ulcer effect: acetic acid ulcer. It counts as in vivo, Male rats of the Wistar strain. The conditions noted are these: p.o., twice a day for 7 days. On the procedure:
as §1
Male rats of the Wistar strain, 6 weeks of age, were used in groups of ten. Under ether anesthesia, each animal was laparotomized, a round frame (with an inside diameter of 5 mm) made of stainless steel was applied to the anterior wall of the stomach, and 100% acetic acid was poured into the frame. After 30 seconds, the acetic acid was removed and the abdomen was closed. Starting on the 7th day after the operation, a certain amount of a compound to be tested was orally administered twice a day to each animal of a group for a period of 7 days. Thereafter, the degree of healing of the ulcer was rated by visual inspection and regarded as an ulcer index (U.I.). The results are also expressed in terms of the percentage of healing based on the U.I. obtained in the control group receiving no compounds to be tested.

Another data set has as its system Gastric Juice Secretion. Briefly: Effect on gastric juice secretion (pyloric ligation). The conditions noted are these: 250 mg/kg, p.o.; 4 hours; control 4.9 ± 0.4; significant at 5% level. It counts as in vivo, Male rats of the Donryu strain. Here is the method:
(§2) Male rats of the Donryu strain, 11 weeks of age, were used in groups of ten. After 24 hours of fasting, the pyloric part of the stomach was ligated. Four hours later, the gastric juice was collected and its volume was measured. Then, its acidity was determined by titrating an aliquot of the gastric juice with 0.05 N sodium hydroxide. Further, the activity of pepsin was determined by Anson's method. A definite amount (250 mg/kg) of a compound to be tested was orally administered immediately after the pyloric ligation.

Another data set concerns Gastric Juice Acidity. Briefly: Effect on gastric juice acidity (pyloric ligation, titration with 0.05 N sodium hydroxide). It counts as in vivo, Male rats of the Donryu strain. The conditions noted are these: 250 mg/kg, p.o.; 4 hours; control 92.5 ± 3.7; significant at 5% level. On the procedure:
as §2

The subject of the next data set is pepsin. Briefly: Effect on pepsin activity (pyloric ligation, Anson's method). Particulars: 250 mg/kg, p.o.; 4 hours; control 7.4 ± 0.5; significant at 1% level. The format is in vivo, Male rats of the Donryu strain. Here is the method:
as §2

The test system of data set [1] is Cysteamine Duodenal Ulcer. Briefly: Anti-ulcer effect: cysteamine duodenal ulcer. It counts as in vivo, Male rats of the Donryu strain. The conditions noted are these: p.o., cysteamine hydrochloride 400 mg/kg, 18 hours. Here is the method:
as §1
(iv) Cysteamine Duodenal Ulcer
Male rats of the Donryu strain, 10 or 11 weeks of age, were used in groups of ten. After 24 hours of fasting, a certain amount of a compound to be tested was orally administered to each animal of a group. Thirty minutes later, cysteamine hydrochloride was orally administered in a dose of 400 mg/kg. After 18 hours, the product of the maximum and minimum diameters of the ulcer formed in the duodenum was determined and regarded as an ulcer index (U.I.). The results are also expressed in terms of the percentage of inhibition based on the U.I. obtained in the control group receiving no compounds to be tested.

In the next data set the test system is Mouse. Particulars: 7 days observation. Here is the method: Male and female mice of the dd Y strain, 4 weeks of age, as well as male and female rats of the rats of the Wistar strain, 7 weeks of age, were used in groups of ten. They were preliminarily raised for a week. Then, a compound to be tested (sodium salt) was dissolved in physiological saline solution and administered orally or subcutaneously. In the case of oral administration, the highest possible doses of 0.2 ml/10 g for mice and 2 ml/100 g for rats were used which both corresponded to 5,000 mg/kg. In the case of subcutaneous administration, the doses were reduced to 1/2. […] The animals that died during this period of observation were subjected to post-mortem examination.

Another data set concerns Rat. Briefly: Acute toxicity in rats. It counts as in vivo, Male and female rats of the Wistar strain. Particulars: 7 days observation. An excerpt: They were preliminarily raised for a week.

In the case of `O=S(=O)(O)OC1C(OS(=O)(=O)O)C(OS(=O)(=O)O)C(OS(=O)(=O)O)C(OS(=O)(=O)O)C1OS(=O)(=O)O` (stereo not shown) [Potassium Salt, inositol hexasulfate potassium salt], the figures for the “percentage of inhibition (Shay's Ulcer)” value with Shay's Ulcer (100 mg/kg) and in the data set on Shay's Ulcer (250 mg/kg) were 85 percentage of inhibition and 80 percentage of inhibition, respectively. Besides, the “percentage of inhibition (Stress Ulcer)” value with Stress Ulcer (250 mg/kg) is 25 percentage of inhibition. Also, the “percentage of inhibition (Aspirin Ulcer)” value is recorded as 46 percentage of inhibition with Aspirin Ulcer (100 mg/kg) and 40 percentage of inhibition in the data set with Aspirin Ulcer (250 mg/kg). Besides, the “percentage of healing (Acetic Acid Ulcer)” value is recorded as 28 percentage of healing in the data set with Acetic Acid Ulcer (100 mg/kg) and 22 percentage of healing with Acetic Acid Ulcer (250 mg/kg). The “Amount of Gastric Juice Secreted” value in the data set on Gastric Juice Secretion is 3.5 ± 0.4 mL. In addition, in the data set on Gastric Juice Acidity, the “Acidity of Gastric Juice” value is 60.2 ± 11.8 mEq/l. Further, in the data set with pepsin, the “Activity of Pepsin” value was determined as 5.2 ± 0.4 mg/mL.
In the case of `O=S(=O)([O-])OC1C(OS(=O)(=O)[O-])C(OS(=O)(=O)[O-])C(OS(=O)(=O)[O-])C(OS(=O)(=O)[O-])C1OS(=O)(=O)[O-].[Na+].[Na+].[Na+].[Na+].[Na+].[Na+]` (stereo not shown) [Sodium Salt, inositol hexasulfate sodium salt], the entries for the “percentage of inhibition (Shay's Ulcer)” value in the data set on Shay's Ulcer (50 mg/kg), with Shay's Ulcer (100 mg/kg) and with Shay's Ulcer (250 mg/kg) were 74 percentage of inhibition, 92 percentage of inhibition and 77 percentage of inhibition, respectively. Besides, the entries for the “percentage of inhibition (Stress Ulcer)” value in the data set with Stress Ulcer (250 mg/kg) and with Stress Ulcer (500 mg/kg) were 27 percentage of inhibition and 50 percentage of inhibition, respectively. Besides, the figures for the “percentage of inhibition (Aspirin Ulcer)” value in the data set on Aspirin Ulcer (50 mg/kg), with Aspirin Ulcer (100 mg/kg) and with Aspirin Ulcer (250 mg/kg) were 11 percentage of inhibition, 44 percentage of inhibition and 48 percentage of inhibition, respectively. In addition, the “percentage of inhibition (Cysteamine Duodenal Ulcer)” value is listed as 37 percentage of inhibition in data set [1] (100 mg/kg), 46 percentage of inhibition in data set [1] (250 mg/kg) and 77 percentage of inhibition in [1] (500 mg/kg). Also, the “percentage of healing (Acetic Acid Ulcer)” value in the data set on Acetic Acid Ulcer (100 mg/kg) is recorded as 29 percentage of healing; in the data set with Acetic Acid Ulcer (250 mg/kg) it was 16 percentage of healing; with Acetic Acid Ulcer (500 mg/kg), 38 percentage of healing. Besides, the “Amount of Gastric Juice Secreted” value with Gastric Juice Secretion amounted to 3.3 ± 0.4 mL. In the data set on Gastric Juice Acidity, the “Acidity of Gastric Juice” value is recorded as 58.4 ± 11.7 mEq/l. The “Activity of Pepsin” value in the data set with pepsin was 5.0 ± 0.4 mg/mL. In addition, the LD50 is > 5,000 mg/kg in the data set with Mouse (Oral), > 2,500 mg/kg in the data set with Mouse (Subcutaneous), > 5,000 mg/kg in the data set on Rat (Oral) and > 2,500 mg/kg in the data set with Rat (Subcutaneous).

These data come from patent publication US4207339A, “Anti-ulcer pharmaceutical composition containing inositol hexasulfate or an alkaline metal salt thereof as active ingredient” (Mitsui Toatsu Chemicals, Incorporated, priority 1978, dated 1980).
